In patent publication US20240122957A1, “USE OF NICOTINAMIDE MONONUCLEOTIDE (NMN) FOR THE PREVENTION AND/OR TREATMENT OF RHEUMATOID ARTHRITIS, AND CORRESPONDING COMPOSITIONS” (NUVAMID SA, priority 2019, published 2024):
Entries after “also recorded” stand apart in the source; their conditions may differ. Like-named read-outs stand apart in the source and are kept apart here.

Tests used:
[1] = Weight and tolerance of mice in the K/BxN serum RA model
Experimental: (§1) In brief, 8-week-old female C57BL6/J mice, weighing between 18-20 g on day 0 of the experiments, were divided into 4 group of 10 mice each: (i) a control group, in which the mice were treated with vehicle, i.e. a 0.9% NaCl solution (10 mL/kg), marked ‘Vehicle’; (ii) a group of mice treated with K/BxN serum (10 mL/kg), marked ‘KBxN’; (iii) a group of mice treated with K/BxN serum+dexamethasone (1 mg/kg), marked ‘KBxN+dexamethasone’; and (iv) a group of mice treated with K/BxN serum+NMN (185 mg/kg), marked ‘KBxN+NMN’.
(§2) The administration of this serum induced chronic joint inflammation in mice in order to mimic RA. […] Here, NMN was used in zwitterionic form. KBxN serum and NMN were administered intraperitoneally to the nice. Dexamethasone was administered subcutaneously.
(§3) The mice were treated for 9 days under the conditions set forth supra. Photos of the paws of the mice were taken on the 6th day of treatment. […] The clinical score and weight of the mice were measured daily. The clinical score was determined by measuring the thickness of each of the front and rear paws of the mice, and adding the associated score according to table 1 infra:
(§4) The statistical analysis of the results was carried out using two-factor ANOVA combined with the Dunnett multiple comparison test.

[2] = in vivo
Experimental: as §1, §2, §3, §4

[3] = system: C57BL6/J mice treated with K/BxN serum (RA model); assay: K/BxN serum-induced RA model in mice (clinical score, paw thickness, paw photographs); type: in vivo
Experimental: Here, NMN was used in zwitterionic form. […] Dexamethasone was administered subcutaneously.

SMILES: NC(=O)c1ccc[n+]([C@@H]2O[C@H](COP(=O)([O-])O)[C@@H](O)[C@H]2O)c1 [NMN, nicotinamide mononucleotide]
- tolerance ([1]; K/BxN serum-treated mice, NMN 185 mg/kg intraperitoneally, 9 days, FIG. 1): well tolerated
- paw appearance compared to mouse treated with vehicle (photographs) [2]: volume similar to that of the mouse treated with vehicle
- paw swelling (photographs of the paws) ([3]; day 6 of treatment, compared to mouse treated with K/BxN, FIG. 4): substantially reduces paw swelling
- average paw thickness (ankle joint inflammation) ([3]; versus KBxN group, NMN 185 mg/kg intraperitoneally, dexamethasone 1 mg/kg subcutaneously, FIG. 3): significantly reduced ankle joint inflammation starting on day 5
- average clinical score ([3]; versus KBxN group, NMN 185 mg/kg intraperitoneally, dexamethasone 1 mg/kg subcutaneously, measured daily, 9 days, FIG. 2): significant reduction in clinical score starting on day 5; also recorded: pronounced starting on day 8

SMILES: C[C@@H]1C[C@H]2[C@@H]3CCC4=CC(=O)C=C[C@]4(C)[C@@]3(F)[C@@H](O)C[C@]2(C)[C@@]1(O)C(=O)CO [dexamethasone]
- paw appearance compared to mouse treated with vehicle (photographs) ([1]; day 6 of treatment, FIG. 4): much more slender than that of the mouse treated with vehicle
- average weight of mice (weight loss) ([1]; relative to KBxN group, NMN 185 mg/kg intraperitoneally, dexamethasone 1 mg/kg subcutaneously, 9 days, FIG. 1): additional and significant weight loss
